Source: US8530522B2, “Organic compounds” (Novartis AG, priority 2008, dated 2013)
Counter-ions that a name gives are not always drawn.

Tests used:
[1] = Water sorption/desorption isotherms (Dynamic Vapor System DVS-1); format: physicochemical
Description: Sorption/desorption isotherms were measured using the Dynamic Vapor System (DVS-1). Measurement was carried out at 25° C. and 40° C.

[2] = Storage of Form I samples at elevated temperature and 75% r.h.; format: physicochemical

| SMILES | relative humidity of first water uptake, water sorption isotherm ([1]; isotherm recorded at 25° C.) [% r.h.] | relative humidity of first significant water uptake, water sorption isotherm ([1]; isotherm recorded at 40° C.) [% r.h.] | solid form after storage ([2]; stored 1 month at 60° C. and 75% r.h.) | solid form after storage ([2]; stored 1 month at 80° C. and 75% r.h.) |
| --- | --- | --- | --- | --- |
| CCCCCCCCc1ccc(CCC(N)(CO)CO)cc1 [FTY720 HCl, 2-amino-2-[2-(4-octylphenyl)ethyl]propane-1,3-diol hydrochloride salt] | 90 | 80 | – | – |
| CCCCCCCCc1ccc(CCC(N)(CO)CO)cc1 [Form I] | – | – | conversion to the hydrate form | conversion to the hydrate form |
